Test results taken from the NIST ThermoML archive (doi:10.1016/j.fluid.2017.12.001).
± gives the expanded uncertainty stated by the source.

Columns and labels:
[1] = xn = mol fraction of the nth substance listed; details: 100.9 kPa, Liquid, Concentric cylinders viscometry, x2 = 0
[2] = 101.33 kPa, Liquid; for viscosity: Concentric cylinders viscometry; for mass density: Vibrating tube method; for speed of sound: Single path-length method

O [water] + CCCC(=O)[O-].CC[NH2+]CC
[1]
Details	viscosity [mPa·s]
283.15 K	1.31 ± 0.02
285.65 K	1.23 ± 0.02
288.15 K	1.15 ± 0.02
290.65 K	1.08 ± 0.02
293.15 K	1.02 ± 0.02
295.65 K	0.96 ± 0.02
298.15 K	0.9 ± 0.02
300.65 K	0.85 ± 0.02
303.15 K	0.8 ± 0.02
305.65 K	0.76 ± 0.02
308.15 K	0.72 ± 0.02
310.65 K	0.69 ± 0.02
313.15 K	0.65 ± 0.02
315.65 K	0.62 ± 0.02
318.15 K	0.59 ± 0.02
320.65 K	0.57 ± 0.02
323.15 K	0.54 ± 0.02
325.65 K	0.51 ± 0.02
328.15 K	0.49 ± 0.02
330.65 K	0.47 ± 0.02
333.15 K	0.45 ± 0.02
335.65 K	0.43 ± 0.02
338.15 K	0.41 ± 0.02
340.65 K	0.39 ± 0.02
343.15 K	0.37 ± 0.02

O [water]
[2]
Details	mass density [kg/m3]	speed of sound [m/s]	viscosity [mPa·s]
283 K	999.72 ± 0.05	–	1.31 ± 0.01
286 K	999.46 ± 0.05	1457 ± 1	1.23 ± 0.01
288 K	–	–	1.15 ± 0.01
291 K	998.69 ± 0.05	1475 ± 1	1.08 ± 0.01
293 K	–	–	1.02 ± 0.01
296 K	997.66 ± 0.05	1490 ± 1	0.96 ± 0.01
298 K	–	–	0.9 ± 0.01
301 K	996.37 ± 0.05	1503 ± 1	0.85 ± 0.01
303 K	–	–	0.8 ± 0.01
306 K	994.87 ± 0.05	1515 ± 1	0.76 ± 0.01
308 K	–	–	0.72 ± 0.01
311 K	993.15 ± 0.06	1525 ± 1	0.69 ± 0.01
313 K	–	1529 ± 1	0.65 ± 0.01
316 K	991.23 ± 0.06	1533 ± 1	0.62 ± 0.01
318 K	–	1537 ± 1	0.59 ± 0.01
321 K	989.15 ± 0.06	1540 ± 1	0.57 ± 0.01
323 K	988.03 ± 0.06	–	0.54 ± 0.01
